# Tested on: P. falciparum 3D7 growth, pLDH absorbance
# Assay: blood-stage malaria parasite growth potency – strain 3D7, dose response (AID 2305)
row,SMILES,IC50
1,COc1cccc(C=NNc2cc(C)nc3ccccc23)c1,940 nM
2,O=C(NC1CC1)c1cnc(N2CCC(COc3cccc(F)c3)CC2)c(Cl)c1,1200 nM
3,CCCCOC(=O)C1=C(C)NC2=C(C(=O)CCC2)C1c1ccc(OC)c(Br)c1 (stereo not drawn),600 nM
4,N#Cc1cccc(C(O)CN(Cc2ccccc2)Cc2ccccc2)c1 (stereo not drawn),1270 nM
5,CC(C)(C)C(=O)N1CCN(c2ccc([N+](=O)[O-])c(NC3CC3)c2)CC1,940 nM
6,COc1ccc2nccc(NC(=O)C3(O)CCC(NCc4ccc5c(c4)NCCS5)CC3)c2n1 (stereo not drawn),600 nM
7,c1ccc(-n2ncc(CNCc3ccc(-c4cccc(-c5nc6ccccc6[nH]5)c4)cc3)n2)cc1,1230 nM
8,COc1ccc(Cl)cc1N1CCN(CCCNC(=O)c2ccc(-c3nc4cc5ccccc5cc4[nH]3)c(F)c2)CC1,800 nM
9,COc1ccc(OC)c([C@H](O)[C@@H](C)NCc2cc(Cl)ccc2O)c1,380 nM
10,c1cncc(CN2CCN(Cc3ccc(-c4ccc(-c5nc6ccccc6[nH]5)s4)cc3)CC2)c1,940 nM
11,Cc1ccoc1C(=O)Nc1ccc(-c2cccc(-c3nc4c(C)cccc4[nH]3)c2)cc1,730 nM
12,N#Cc1ccc(N(CCOc2ccc(Cl)c(F)c2)Cc2ccccc2C(F)(F)F)cc1C(F)(F)F,680 nM
13,Cc1cccc(C(=O)Nc2ccc(N3CCCN(Cc4cccc(O)c4)CC3)cc2)c1,1420 nM
14,CN1CCN(c2nsc3ccc(-c4ccc(NC(=O)Nc5cc(C(F)(F)F)ccc5F)cc4)cc23)CC1,240 nM
15,O=C1CCCN1CCCNCc1cccc(-c2ccc(-c3nc4ccc(C(F)(F)F)cc4[nH]3)s2)c1,450 nM
16,CN1CCC[C@H]1COc1ccc(CN2CC[C@H](NC(=O)c3ccc(Cl)c(Cl)c3)C2)cc1Cl,1150 nM
17,CCCNC(=O)c1ccnc(-c2ccc(CNC3Cc4ccccc4C3)cc2)c1,940 nM
18,O=C(Nc1ccc(C(F)(F)F)cc1)NC1CCN(c2ccnc3cc(Cl)ccc23)CC1,180 nM
19,CCOc1ccc2nc3cc(NC(=O)c4ccco4)ccc3c(N)c2c1,800 nM

row,SMILES,IC50
1,N#Cc1ccc(-c2ccc(C(=O)NCCCCN3CCC(c4cn(CCO)c5ccccc45)CC3)cc2)cc1,950 nM
2,N#Cc1ccc(N2CCN(Cc3cccc(-c4ccc(-c5nc6ccc(C(F)(F)F)cc6[nH]5)s4)c3)CC2)nc1,1040 nM
3,CCCCCCc1cc2cc(-c3nc(-c4ccc(OC)cc4)cs3)c(=O)oc2cc1O,820 nM
4,Cc1cc(NCc2ccccc2)nc(NCc2ccccc2)n1,970 nM
5,CC(C)CNCc1cccc(-c2ccc(CN(C(=O)c3cccs3)C3CCN(Cc4ccccc4)CC3)cc2)c1,1010 nM
6,CC(c1cccc(S(=O)(=O)NCc2cccc(C(F)(F)F)c2)c1)N1CCC(N2CCCCC2)CC1 (stereo not drawn),690 nM
7,CCC(C)NC(=O)CN1CN(c2ccccc2)C2(CCN(C(=O)c3ccc4ccccc4c3)CC2)C1=O (stereo not drawn),630 nM
8,c1ccc(-c2ccc3c(Nc4ccc5[nH]ccc5c4)ccnc3c2)nc1,940 nM
9,NC1=NC2(CCCC2)N(c2ccc(Cl)cc2)C(N)=N1,410 nM
10,CC(C)C[C@@H](/C=N/NC(N)=O)NC(=O)[C@H](CC(C)C)NC(=O)[C@H](CC(C)C)NC(=O)OCc1ccccc1,150 nM
11,CC(=O)N[C@H](C(=O)Nc1ccc(-c2ccc(-c3nc4ccc(C(F)(F)F)cc4[nH]3)cc2)cc1)C(C)C,890 nM
12,CC(C)N(C)C(=O)n1cnc(S(=O)(=O)C2C[C@@H]3CC[C@H]2C3)n1 (stereo partly drawn),60 nM
13,O=C(/C=C/c1ccc(Cl)c(Cl)c1)N1CCC(CCN2CCC(c3c[nH]c4ccccc34)CC2)CC1,600 nM
14,Nc1ncc(-c2cccc(OCc3ccccc3)c2)cc1-c1nnc2ccc(Cl)nn12,1430 nM
15,COCCNCc1ccc(-c2ccc(CN(C(=O)NC3CCCCC3)C3CCN(Cc4ccccc4)CC3)cc2)cc1,960 nM
16,O=S(=O)(/C=C/c1ccccc1)N(Cc1ccc(-c2ccc(CNCCc3ccccc3)cc2)cc1)CC1CCCCN1 (stereo not drawn),790 nM
17,Cc1cc(N)nc2ccc(-c3ccc(CCN)cc3)cc12,620 nM
18,CC(=O)Oc1cc(OCc2ccccc2)c(OC(C)=O)c(OCc2ccccc2)c1,410 nM
19,COc1ccccc1CCNc1nc(C)cc(N[C@@H](Cc2ccccc2)C(=O)NCc2cccs2)n1,630 nM

# — PubChem BioAssay AID2305 (GlaxoSmithKline (GSK), 2010)
